From ChEMBL document CHEMBL1926641, “Farinamycin, a quinazoline from Streptomyces griseus” (J Nat Prod, 2011) come the findings set out here.

Data set [1] concerns Escherichia coli. Description: Antimicrobial activity against Escherichia coli SG 458 at <= 100 ug/ml by agar diffusion assay. The class given is functional, organism-based. (In general: A growth-free zone around the sample is the usual read-out of agar diffusion tests.)
The test system of data set [2] is Bacillus subtilis. Description: Antimicrobial activity against Bacillus subtilis ATCC 6633 at <= 100 ug/ml by agar diffusion assay. It is filed as functional, organism-based.
In data set [3] the test system is Staphylococcus aureus. In words: Antimicrobial activity against Staphylococcus aureus SG 511 at <= 100 ug/ml by agar diffusion assay. It is filed as functional, organism-based.
Data set [4] relates to Pseudomonas aeruginosa. Description: Antimicrobial activity against Pseudomonas aeruginosa K 799/61 at <= 100 ug/ml by agar diffusion assay. The class given is functional, organism-based.
Data set [5] relates to Mycolicibacterium vaccae. Description: Antimicrobial activity against Mycobacterium vaccae IMET 10670 at <= 100 ug/ml by agar diffusion assay. The class given is functional, organism-based.
Data set [6] concerns Sporobolomyces salmonicolor. Description: Antimicrobial activity against Sporobolomyces salmonicolor SBUG 549 at <= 100 ug/ml by agar diffusion assay. The class given is functional, organism-based.
For data set [7], the system named is Candida albicans. In words: Antifungal activity against Candida albicans BMSY 212 at <= 100 ug/ml by agar diffusion assay. It is filed as functional, organism-based.
In data set [8] the test system is Penicillium chrysogenum. Description: Antifungal activity against Penicillium notatum JP 36 at <= 100 ug/ml by agar diffusion assay. It is filed as functional, organism-based.
In data set [9] the test system is K562. Description: Cytotoxicity against human K562 cells at <= 50 ug/ml. The class given is functional, cell-based.
For data set [10], the system named is HUVEC. Description: Antiproliferative activity against human HUVEC cells at <= 50 ug/ml. It is filed as cell-based.
The test system of data set [11] is HeLa. Description: Cytotoxicity against human HeLa cells at <= 50 ug/ml. It is filed as functional, cell-based.

The source made the active and inactive calls. The calls are words filed in the database; no cut-off is given here.

In the case of `NC(=O)C1=C(N)[C@@H](O)[C@H](O)[C@@H](Nc2cc(-c3nc4c(O)cccc4c(=O)[nH]3)ccc2O)C1=O` [FARINAMYCIN], the result in [1], in data set [2], in data set [3], in data set [4], in data set [5] and in data set [6] was inactive. The result in data set [7], in data set [8], in data set [9] and in data set [11] was inactive. In addition, in data set [10], the Activity result was “Non-toxic”.
